Key:
ABUTH (Velvetleaf) [1] = experiment: Postemergence herbicidal evaluation; format: in vivo, Abutilon theophrasti; conditions: postemergence
Summary of the method: (§1)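 Visual 0–9 rating versus control (stand, vigor, malformation, size, chlorosis, overall appearance), taken four to five weeks post-spray. Two-week-old seedlings received roughly 0.0156–0.500 kg/ha active in acetone/water (50/50) with 0.5% TWEEN 20 via nozzle at 40 psi.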

AMBEL (Ragweed, Common) = experiment: Postemergence herbicidal evaluation; format: in vivo, Ambrosia artemisifolia; conditions: postemergence
Summary of the method: as §1

ECHCG (Barnyardgrass) = experiment: Postemergence herbicidal evaluation; format: in vivo, Echinochloa crus-galli; conditions: postemergence
Summary of the method: as §1

SETVI (Foxtail, Green) [2] = experiment: Postemergence herbicidal evaluation; format: in vivo, Setaria viridis; conditions: postemergence
Summary of the method: as §1

[3] = tested on: GLXMAW (Soybean, Williams); experiment: Postemergence herbicidal evaluation; format: in vivo, Glycine max, (L.) Merr. cv Williams; conditions: postemergence
Summary of the method: as §1

ORYSAT (Rice, Tebonnet) = experiment: Postemergence herbicidal evaluation; format: in vivo, Oryza sativa, (L.) Tebonnet; conditions: postemergence
Summary of the method: as §1

[4] = tested on: TRZAWR (Wheat, Winter, cv Riband); experiment: Postemergence herbicidal evaluation; format: in vivo, Triticum aestivum; conditions: postemergence
Summary of the method: as §1

ABUTH (Velvetleaf) [5] = experiment: Preemergence herbicidal evaluation; format: in vivo, Abutilon theophrasti; conditions: rated 4-5 weeks after treatment
Summary of the method: (§2)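 Preemergence soil application of compound, sprayed in aqueous acetone at rates equivalent to about 0.0156 to 0.500 kg per hectare onto freshly sown cups. Plant response was judged by eye on a 0-9 scale four to five weeks later.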

CASOB (Sicklepod) = experiment: Preemergence herbicidal evaluation; format: in vivo, Cassia obtusifolia; conditions: rated 4-5 weeks after treatment
Summary of the method: as §2

SETVI (Foxtail, Green) [6] = experiment: Preemergence herbicidal evaluation; format: in vivo, Setaria viridis; conditions: rated 4-5 weeks after treatment
Summary of the method: as §2

MOOVA (Monochoria) = experiment: Preemergence weed control under flooded paddy conditions; format: in vivo, Monochoria vaginalis; conditions: rated 3-4 weeks after treatment
Summary of the method: (§3)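 First, seeds or propagules go into the top 0.5 cm of silt loam; next, water is held 1.5 to 3 cm over the soil; then compound (50/50 acetone/water) is pipetted into it at about 0.0313 to 0.500 kg/ha; finally plants are rated visually 0-9 after three to four weeks.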

[7] = tested on: SAGPY (Arrowhead (Pygmaea)); experiment: as above; format: in vivo, Sagittaria pygmaea; conditions: rated 3-4 weeks after treatment
Summary of the method: as §3

[8] = rate 0.0313 kg/ha, rating scale 0-9
[9] = rate 0.0625 kg/ha, rating scale 0-9
[10] = rate 0.1250 kg/ha, rating scale 0-9
[11] = rate 0.2500 kg/ha, rating scale 0-9

Structure (SMILES): CC(C)OC(=O)CN1C(=O)CSC1=Nc1cc(-n2c(=O)cc(C(F)(F)F)n(C)c2=O)c(F)cc1Cl [Compound 110]
- Herbicidal rating ABUTH (ABUTH (Velvetleaf) [1]; rate 0.0158 kg/ha): 9.0
- Herbicidal rating ABUTH (ABUTH (Velvetleaf) [1]; rate 0.0315 kg/ha): 9.0
- Herbicidal rating ABUTH (ABUTH (Velvetleaf) [1]; rate 0.0630 kg/ha): 9.0
- Herbicidal rating AMBEL (AMBEL (Ragweed, Common); rate 0.0158 kg/ha): 5.0
- Herbicidal rating AMBEL (AMBEL (Ragweed, Common); rate 0.0315 kg/ha): 4.0
- Herbicidal rating AMBEL (AMBEL (Ragweed, Common); rate 0.0630 kg/ha): 9.0
- Herbicidal rating ECHCG (ECHCG (Barnyardgrass); rate 0.0158 kg/ha): 1.0
- Herbicidal rating ECHCG (ECHCG (Barnyardgrass); rate 0.0315 kg/ha): 5.0
- Herbicidal rating ECHCG (ECHCG (Barnyardgrass); rate 0.0630 kg/ha): 4.0
- Herbicidal rating SETVI (SETVI (Foxtail, Green) [2]; rate 0.0158 kg/ha): 1.0
- Herbicidal rating SETVI (SETVI (Foxtail, Green) [2]; rate 0.0315 kg/ha): 9.0
- Herbicidal rating SETVI (SETVI (Foxtail, Green) [2]; rate 0.0630 kg/ha): 9.0
- Herbicidal rating GLXMAW ([3]; rate 0.0158 kg/ha): 5.0
- Herbicidal rating GLXMAW ([3]; rate 0.0315 kg/ha): 6.5
- Herbicidal rating GLXMAW ([3]; rate 0.0630 kg/ha): 6.5
- Herbicidal rating ORYSAT (ORYSAT (Rice, Tebonnet); rate 0.0158 kg/ha): 2.5
- Herbicidal rating ORYSAT (ORYSAT (Rice, Tebonnet); rate 0.0315 kg/ha): 3.5
- Herbicidal rating ORYSAT (ORYSAT (Rice, Tebonnet); rate 0.0630 kg/ha): 3.5
- Herbicidal rating TRZAWR ([4]; rate 0.0158 kg/ha): 2.5
- Herbicidal rating TRZAWR ([4]; rate 0.0315 kg/ha): 3.5
- Herbicidal rating TRZAWR ([4]; rate 0.0630 kg/ha): 4.0
- Preemergence herbicidal rating ABUTH (ABUTH (Velvetleaf) [5]; rate 0.0156 kg/ha): 5.5
- Preemergence herbicidal rating ABUTH (ABUTH (Velvetleaf) [5]; rate 0.0313 kg/ha): 9.0
- Preemergence herbicidal rating ABUTH (ABUTH (Velvetleaf) [5]; rate 0.0625 kg/ha): 9.0
- Preemergence herbicidal rating ABUTH (ABUTH (Velvetleaf) [5]; rate 0.1250 kg/ha): 9.0
- Preemergence herbicidal rating ABUTH (ABUTH (Velvetleaf) [5]; rate 0.2500 kg/ha): 9.0
- Preemergence herbicidal rating ABUTH (ABUTH (Velvetleaf) [5]; rate 0.5000 kg/ha): 9.0
- Preemergence herbicidal rating CASOB (CASOB (Sicklepod); rate 0.0156 kg/ha): 0.0
- Preemergence herbicidal rating CASOB (CASOB (Sicklepod); rate 0.0313 kg/ha): 0.0
- Preemergence herbicidal rating CASOB (CASOB (Sicklepod); rate 0.0625 kg/ha): 0.0
- Preemergence herbicidal rating CASOB (CASOB (Sicklepod); rate 0.1250 kg/ha): 2.0
- Preemergence herbicidal rating CASOB (CASOB (Sicklepod); rate 0.2500 kg/ha): 5.0
- Preemergence herbicidal rating CASOB (CASOB (Sicklepod); rate 0.5000 kg/ha): 9.0
- Preemergence herbicidal rating SETVI (SETVI (Foxtail, Green) [6]; rate 0.0156 kg/ha): 1.5
- Preemergence herbicidal rating SETVI (SETVI (Foxtail, Green) [6]; rate 0.0313 kg/ha): 2.5
- Preemergence herbicidal rating SETVI (SETVI (Foxtail, Green) [6]; rate 0.0625 kg/ha): 5.0
- Preemergence herbicidal rating SETVI (SETVI (Foxtail, Green) [6]; rate 0.1250 kg/ha): 8.0
- Preemergence herbicidal rating SETVI (SETVI (Foxtail, Green) [6]; rate 0.2500 kg/ha): 9.0
- Preemergence herbicidal rating SETVI (SETVI (Foxtail, Green) [6]; rate 0.5000 kg/ha): 9.0
- MOOVA herbicidal effect rating (MOOVA (Monochoria); 0.0313 kg/ha): 9.0
- MOOVA herbicidal effect rating (MOOVA (Monochoria); 0.0625 kg/ha): 9.0
- MOOVA herbicidal effect rating (MOOVA (Monochoria); 0.1250 kg/ha): 9.0
- MOOVA herbicidal effect rating (MOOVA (Monochoria); 0.2500 kg/ha): 9.0
- SAGPY herbicidal effect rating ([7]; 0.0313 kg/ha): 6.0
- SAGPY herbicidal effect rating ([7]; 0.0625 kg/ha): 7.0
- SAGPY herbicidal effect rating ([7]; 0.1250 kg/ha): 7.0
- SAGPY herbicidal effect rating ([7]; 0.2500 kg/ha): 8.0

Structure (SMILES): CCOC(=O)CN1C(=O)C(COC)SC1=Nc1cc(-n2c(=O)cc(C(F)(F)F)n(C)c2=O)c(F)cc1Cl (stereo not drawn) [Compound 156, Ethyl 2-{{2-chloro-5-[3,6-dihydro-3-methyl-2,6-dioxo-4-(trifluoromethyl)-1(2H)-pyrimidinyl]-4-fluorophenyl}imino}-5-(methoxymethyl)-4-oxo-3-thiazolidine-acetate]
- Herbicidal rating ABUTH (ABUTH (Velvetleaf) [1]; rate 0.0156 kg/ha): 9.0
- Herbicidal rating ABUTH (ABUTH (Velvetleaf) [1]; rate 0.0313 kg/ha): 9.0
- Herbicidal rating ABUTH (ABUTH (Velvetleaf) [1]; rate 0.0625 kg/ha): 9.0
- Herbicidal rating AMBEL (AMBEL (Ragweed, Common); rate 0.0156 kg/ha): 7.0
- Herbicidal rating AMBEL (AMBEL (Ragweed, Common); rate 0.0313 kg/ha): 7.0
- Herbicidal rating AMBEL (AMBEL (Ragweed, Common); rate 0.0625 kg/ha): 9.0
- Herbicidal rating ECHCG (ECHCG (Barnyardgrass); rate 0.0156 kg/ha): 0.0
- Herbicidal rating ECHCG (ECHCG (Barnyardgrass); rate 0.0313 kg/ha): 0.0
- Herbicidal rating ECHCG (ECHCG (Barnyardgrass); rate 0.0625 kg/ha): 0.0
- Herbicidal rating SETVI (SETVI (Foxtail, Green) [2]; rate 0.0156 kg/ha): 0.0
- Herbicidal rating SETVI (SETVI (Foxtail, Green) [2]; rate 0.0313 kg/ha): 0.0
- Herbicidal rating SETVI (SETVI (Foxtail, Green) [2]; rate 0.0625 kg/ha): 5.0
- Herbicidal rating GLXMAW ([3]; rate 0.0156 kg/ha): 5.5
- Herbicidal rating GLXMAW ([3]; rate 0.0313 kg/ha): 4.0
- Herbicidal rating GLXMAW ([3]; rate 0.0625 kg/ha): 5.5
- Herbicidal rating ORYSAT (ORYSAT (Rice, Tebonnet); rate 0.0156 kg/ha): 0.5
- Herbicidal rating ORYSAT (ORYSAT (Rice, Tebonnet); rate 0.0313 kg/ha): 0.5
- Herbicidal rating ORYSAT (ORYSAT (Rice, Tebonnet); rate 0.0625 kg/ha): 2.0
- Herbicidal rating TRZAWR ([4]; rate 0.0156 kg/ha): 3.0
- Herbicidal rating TRZAWR ([4]; rate 0.0313 kg/ha): 3.5
- Herbicidal rating TRZAWR ([4]; rate 0.0625 kg/ha): 4.0
- Preemergence herbicidal rating ABUTH (ABUTH (Velvetleaf) [5]; [8]): 4.0
- Preemergence herbicidal rating ABUTH (ABUTH (Velvetleaf) [5]; [9]): 9.0
- Preemergence herbicidal rating ABUTH (ABUTH (Velvetleaf) [5]; [10]): 9.0
- Preemergence herbicidal rating ABUTH (ABUTH (Velvetleaf) [5]; [11]): 9.0
- Preemergence herbicidal rating CASOB (CASOB (Sicklepod); [8]): 0.0
- Preemergence herbicidal rating CASOB (CASOB (Sicklepod); [9]): 0.0
- Preemergence herbicidal rating CASOB (CASOB (Sicklepod); [11]): 0.0
- Preemergence herbicidal rating SETVI (SETVI (Foxtail, Green) [6]; [8]): 0.0
- Preemergence herbicidal rating SETVI (SETVI (Foxtail, Green) [6]; [9]): 2.0
- Preemergence herbicidal rating SETVI (SETVI (Foxtail, Green) [6]; [10]): 2.0
- Preemergence herbicidal rating SETVI (SETVI (Foxtail, Green) [6]; [11]): 9.0
- herbicidal effect rating, MOOVA (MOOVA (Monochoria); 0.2500 kg/ha): 0.0
- herbicidal effect rating, SAGPY ([7]; 0.2500 kg/ha): 0.0

— patent US20020137929A1, “1 - (3-heterocyclylphenyl) isothiourea, -isourea, -guanidine and -amidine herbicidal agents” (Intellectual Property Department, BASF Aktiengesellschaft, priority 1998, published 2002)
